The source of these data is paper PMC9967645, “OAT3 Participates in Drug–Drug Interaction between Bentysrepinine and Entecavir through Interactions with M8—A Metabolite of Bentysrepinine—In Rats and Humans In Vitro” (Molecules, 2023).

Data set [1] is described as follows: Pharmacokinetic DDI study in rats, intravenous Y101 and/or ETV. The data set is classed as in vivo, Sprague–Dawley (SD) rats. The settings on record: Sprague-Dawley, rat, plasma; for AUC(0-inf) / AUC(0-t) / Cmax / Tmax / half-life / C0 / Vd: n = 4; for clearance: n = 4, read-out: CLp (plasma clearance) (converted). On the procedure: Additionally, DDI between Y101 and ETV was investigated by monitoring time-course plasma Y101 in rats with surgery as described above. Animals were randomly placed into three groups (n = 4): (1) Y101 alone (25 mg/kg for intravenous treatment and 60 mg/kg for oral administration); (2) ETV (0.06 mg/kg); and (3) Y101 (25 mg/kg for intravenous treatment and 60 mg/kg for oral administration) + ETV (0.06 mg/kg). ETV was dissolved in saline at concentration of 12 µg/mL. Rats received an oral or intravenous dose of Y101 and/or ETV at volume of 5 mL/kg. The doses used in in vivo pharmacokinetic studies were selected in accordance with therapeutic doses of Y101 and ETV commonly used clinically and in previous studies.
Following administration, serial blood samples were collected through jugular vein pre-dose (0 h) and post-dose at 0.033, 0.083, 0.25, 0.5, 1, 1.5, 2, 3, 4, 6, 9, 12, 24 and 30 h in heparinized Eppendorf tubes. The resulting samples were centrifuged at 13,800× g at 4 °C for 5 min to obtain plasma. All plasma samples were stored at −70 °C until analysis.
(§1) Biological samples were prepared as previously described.
Non-compartmental analysis with Phenix WinNonlin (version 8.1; Pharsight, Certara Corp, Princeton, NJ) was used to calculate the main pharmacokinetic parameters of ETV, Y101, M8 and M9 for individual rats. The observed values were reported for maximum concentration (Cmax) and time to reach maximum concentration (Tmax), while the area under the plasma concentration–time curve (AUC) was calculated via the default trapezoidal-up, log-trapezoidal-down approach.

A short description of data set [2]: Renal excretion study in rats (cumulative urinary excretion, renal clearance). In kind it is in vivo, Sprague–Dawley (SD) rats. The settings on record: for CL renal: Sprague-Dawley, rat, urine, iv, read-out: CLR (renal clearance) (converted). On the procedure:
To investigate the effects of PRO on the renal excretion of Y101 and its metabolites, rats received an intravenous dose of Y101 (25 mg/kg) or Y101 + PRO (25 mg/kg for Y101 and 100 mg/kg for PRO) via the caudal vein. In order to verify the DDI between Y101 and ETV in renal excretion, rats received an intravenous dose of Y101 (25 mg/kg) and/or ETV (0.06 mg/kg) by caudal vein.
[…] Subsequently, urine samples were stored at −70 °C until analysis. The cumulative urinary excretion and renal clearance (CLR) were calculated as previously described.
as §1

[3] abbreviates: i.v. Y101 25 mg/kg + ETV 0.06 mg/kg.
Setting [4] is: 25 mg/kg, i.v. Y101 25 mg/kg + PRO 100 mg/kg.
[5] abbreviates: 25 mg/kg, i.v. Y101 25 mg/kg alone (Table 1, control of PRO study).
Where [6] appears, read: 25 mg/kg, i.v. Y101 25 mg/kg alone (Table 2, control of ETV study).
[7] abbreviates: i.v. Y101 25 mg/kg + ETV 0.06 mg/kg, at 30 h post-dose.
The mark [8] stands for this setting: i.v. Y101 25 mg/kg + PRO 100 mg/kg, 0 to 48 h.

The structures appear in SMILES notation. “And” between values parts separate entries of the source, which are not always exact repeats. Equal values may be shown once. Read-outs that look alike come from different tables or passages of the source.

Turning to `CN(C)CCOc1ccc(CC(NC(=O)c2ccccc2)C(=O)O)cc1` (stereo not drawn) [M8], the AUC(0-inf) in data set [1] (setting [3]) was 6150 ng·h/mL; in data set [1] (i.v. Y101 25 mg/kg alone), 5860 ng·h/mL. The values for the AUC(0-t) in data set [1] (setting [3]) and in data set [1] (i.v. Y101 25 mg/kg alone) were 6100 ng·h/mL and 5830 ng·h/mL, respectively. Further, the values for the Cmax in data set [1] (setting [3]) and in data set [1] (i.v. Y101 25 mg/kg alone) were 2520 ng/mL and 2660 ng/mL, respectively. In addition, the Tmax stood at 26.3 min in data set [1] (setting [3]) and 30 min in data set [1] (i.v. Y101 25 mg/kg alone). The half-life in data set [1] (setting [3]) is 159 min; in data set [1] (i.v. Y101 25 mg/kg alone), 116 min. Further, the CL renal in data set [2] (setting [4]) is 82.7 mL/min/kg; in data set [2] (setting [5]) it was 100 mL/min/kg; in data set [2] (setting [6]) it was 115 mL/min/kg; in data set [2] (setting [3]), 106 mL/min/kg. Moreover, the “cumulative excretion in the urine” value in data set [2] (setting [7]) is reported as 59.7 ± 5.78 % of the dose. Further, the cumulative urinary excretion in data set [2] (setting [8]) was 56.3 ± 3.00%; in data set [2] (i.v. Y101 25 mg/kg alone, at 48 h post-dose), 68.1 ± 6.97 % of the dose and 68.1 % of the dose.
Regarding `CN(C)CCOc1ccc(C[C@H](NC(=O)c2ccccc2)C(=O)N[C@H](CO)Cc2ccccc2)cc1.Cl` [Y101, N-[N-benzoyl-O-(2-dimethylaminoethyl)-l-tyrosyl]-l-phenylalaninol hydrochloride], in data set [1] (setting [3]), the AUC(0-inf) was 1690 ng·h/mL, the exposure AUC(0-t) was determined as 1670 ng·h/mL, the C0 worked out at 6280 ng/mL and the Vd was 15.5 L/kg. Further, in data set [1] (setting [3]), the half-life is 39.6 min and the clearance was 258 mL/min/kg. Further, in data set [1] (i.v. Y101 25 mg/kg alone), the AUC(0-inf) came to 2370 ng·h/mL, the AUC(0-t) turned out to be 2350 ng·h/mL, the C0 was found to be 10600 ng/mL and the Vd came out at 10.6 L/kg. Also, in data set [1] (i.v. Y101 25 mg/kg alone), the half-life was 40.9 min and the clearance is 178 mL/min/kg. For the same compound, the CL renal in data set [2] (setting [4]) was 5.28 mL/min/kg. In addition, the CL renal in data set [2] (setting [5]) is 6.1 mL/min/kg. Moreover, in data set [2] (setting [6]), the CL renal is 7.18 mL/min/kg. Moreover, in data set [2] (setting [3]), the CL renal was 7.93 mL/min/kg. Moreover, in data set [2] (setting [7]), the “cumulative excretion in the urine” value is 4.48 ± 0.742 % of the dose. The cumulative urinary excretion in data set [2] (setting [8]) amounted to 3.59 ± 0.526%. Further, the cumulative urinary excretion in data set [2] (i.v. Y101 25 mg/kg alone, at 48 h post-dose, 25 mg/kg) is 4.16 ± 0.843 % of the dose and 4.16 % of the dose.
As to `C=C1[C@H](CO)[C@@H](O)C[C@@H]1n1cnc2c(=O)[nH]c(N)nc21` [ETV, entecavir], in data set [1] (i.v. ETV 0.06 mg/kg alone), the AUC(0-inf) is 9.79 ng·h/mL, the exposure AUC(0-t) turned out to be 9.21 ng·h/mL, the C0 was 26.4 ng/mL and the Vd amounted to 11.7 L/kg. In addition, in data set [1] (i.v. ETV 0.06 mg/kg alone), the half-life is 76.8 min and the clearance was 107 mL/min/kg. Besides, in data set [1] (setting [3]), the AUC(0-inf) turned out to be 6.76 ng·h/mL, the AUC(0-t) is 6.31 ng·h/mL, the C0 is 19.1 ng/mL and the Vd turned out to be 16.4 L/kg. Besides, in data set [1] (setting [3]), the half-life is 76.8 min and the clearance is 152 mL/min/kg. Also, in data set [2] (0.06 mg/kg, i.v. ETV 0.06 mg/kg alone), the CL renal is 36.2 mL/min/kg. In addition, the CL renal in data set [2] (setting [3]) was 33.3 mL/min/kg. Moreover, in data set [2] (i.v. ETV 0.06 mg/kg alone, at 30 h post-dose), the “cumulative excretion in urine” value was determined as 33.4 ± 1.55%.
